Here are results for 16 compounds from publication PMC4531110 (Chemical biology & drug design, 2015).

One data set has as its system WSN-Ren luciferase virus. The data set can be described thus: Viral replication assay by RT-PCR, WSN nucleoprotein mRNA level in MDCK-HA cells. The format is cell-based, influenza A virus. The note with it: 50 μM, standardized against beta-actin, vs DMSO.
For data set [1], the system named is MDCK cells. Particulars: cited from earlier work.
Data set [2] deals with influenza RNA promoter. The format is binding, influenza A virus. Particulars: for line broadening of the imino protons of U27: 1D 1H NMR; for Kd: pH 6; for binding to the RNA promoter (1D 1H NMR, imino protons of U26, G13): 30 or 50 μM RNA promoter.
Data set [3] concerns the target influenza RNA promoter. The note with it: from peak intensity of imino protons of U26, G13 and G24; cited from earlier work.
Data set [4] relates to A/WSN/33 influenza virus (WSN-Ren luciferase virus) in MDCK-HA cells. The note with it: for IC50/CC50: ratio of WSN-Ren IC50 to ATPlite CC50. In general terms: ATP-based viability assays read luminescence as a measure of living cells.
The test system is the same in data set [5]. Particulars: cell-based viral replication (luciferase) assay; cited from earlier work.
The nature of another data set: in vitro. The note with it: dog.
Data set [6] relates to wild-type influenza virus (A/Puerto Rico/8/1935). The format is cell-based.
Data set [7] relates to MDCK cells.
Data set [8] is described as follows: ATPlite assay for cytotoxicity assessment. The note with it: dog, MDCK cells (results text: MDCK-HA cells).

The Kd is the free concentration of one partner at which half of the binding sites on the other are occupied at equilibrium, for simple one-to-one binding. As usually defined, the IC50 is the concentration at which inhibition is half-maximal.

The structures appear in SMILES notation. Entries after “also recorded” stand apart in the source; their conditions may differ. Where two headings read alike, the source gives them in different places.

`COc1cc2nc(N3CCNCC3)nc(N)c2cc1OC` [Compound 1, 6,7-dimethoxy-2-(1-piperazinyl)-4-quinazolinamine]: the “inhibition of viral nucleoprotein mRNA production” value with WSN-Ren luciferase virus is on record as “not effective”. In addition, the CC50 with MDCK cells [1] was more than 1000 µM. Besides, in the data set on influenza RNA promoter [2], the “line broadening of the imino protons of U27” value (shortened to “line broadening”) was “caused line broadening of the imino protons of U27”. Further, the Kd at influenza RNA promoter [2] is 61.5 µM; at influenza RNA promoter [3], 50.5 ± 9 µM. Besides, the IC50/CC50 in [4] was less than 0.55. In addition, in data set [5], the IC50 was 549 µM.
As for `COc1cc2nc(N3CCN(C(=O)CCO)CC3)nc(N)c2cc1OC` [Compound 9, 1-(4-(4-amino-6,7-dimethoxyquinazolin-2-yl)piperazin-1-yl)-3-hydroxypropan-1-one], in the data set with influenza RNA promoter [2], the “line broadening” value is reported as “caused line broadening of the imino protons of U27” and the “binding to the RNA promoter (1D 1H NMR, imino protons of U26, G13)” value (“binding to the RNA promoter” below) is recorded as “bound to the influenza RNA promoter; also recorded: compound binding to RNA promoter”. For the same compound, in “in vitro”, the CC50 at 24 h is more than 250 µM.
On to `CCOC(=O)C1=C[C@@H](OC(CC)CC)[C@H](NC(C)=O)[C@@H](N)C1` [Oseltamivir phosphate, oseltamivir phosphate, reference compound], for which the “inhibition of A/PR8 nucleoprotein mRNA level” value in [6] is on record as “showed inhibitory effects”.
Regarding `COc1cc2nc(N3CCN(C(=O)C45CC6CC(CC(C6)C4)C5)CC3)nc(N)c2cc1OC` [Compound 12, (1r,3R,5S)-adamantan-1-yl(4-(4-amino-6,7-dimethoxyquinazolin-2-yl)piperazin-1-yl)methanone], the “binding to the RNA promoter” value with influenza RNA promoter [2] is reported as “bound to the influenza RNA promoter; also recorded: compound binding to RNA promoter”. The compound further had a CC50 in the data set on MDCK cells [7] of 16.4 µM. Further, in data set [4], the IC50 was more than 250 µM and the IC50/CC50 is reported as more than 15.24.
As to `CCC(=O)N1CCN(c2nc(N)c3cc(OC)c(OC)cc3n2)CC1` [Compound 6, 1-(4-(4-amino-6,7-dimethoxyquinazolin-2-yl)piperazin-1-yl)propan-1-one], in the data set with influenza RNA promoter [2], the “binding to the RNA promoter” value was “compound binding to RNA promoter” and binding was characterised by a dissociation constant (Kd) of 114 µM. Further, in “in vitro”, the CC50 at 24 h was more than 250 µM. The IC50/CC50 in [4] is reported as less than 0.16.
Consider `COc1cc2nc(N3CCN(S(C)(=O)=O)CC3)nc(N)c2cc1OC` [Compound 5, 6,7-dimethoxy-2-(4-(methylsulfonyl)piperazin-1-yl)quinazolin-4-amine], for which, in the data set on influenza RNA promoter [2], the “line broadening” value is “caused line broadening of the imino protons of U27” and the “binding to the RNA promoter” value is recorded as “bound to the influenza RNA promoter; also recorded: compound binding to RNA promoter”. The compound further returned a CC50 at 24 h in “in vitro” of more than 250 µM.
`COc1cc2nc(N3CCN(C(=O)C4CCCO4)CC3)nc(N)c2cc1OC` (centres unmarked) [Compound 13, (4-(4-amino-6,7-dimethoxyquinazolin-2-yl)piperazin-1-yl)(tetrahydrofuran-2-yl)methanone] came in with a CC50 at 24 h in data set [8] of more than 250 µM.
As for `COc1cc2nc(N3CCN(C(=O)c4ccco4)CC3)nc(N)c2cc1OC` [Compound 14, (4-(4-amino-6,7-dimethoxyquinazolin-2-yl)piperazin-1-yl)(furan-2-yl)methanone], in the data set with influenza RNA promoter [2], the “line broadening” value was “caused line broadening of the imino protons of U27” and the “binding to the RNA promoter” value is listed as “compound binding to RNA promoter”. Also, in data set [4], the IC50/CC50 turned out to be 0.36. In data set [8], this compound had a CC50 at 24 h of 78.2 µM.
For the compound `COc1cc2nc(N3CCN(C(=O)C4CC4)CC3)nc(N)c2cc1OC` [Compound 10, (4-(4-amino-6,7-dimethoxyquinazolin-2-yl)piperazin-1-yl)(cyclopropyl)methanone], in the data set on influenza RNA promoter [2], the “binding to the RNA promoter” value is “compound binding to RNA promoter” and binding was put at a Kd of 127 µM. This compound also registered a CC50 at 24 h in “in vitro” of more than 250 µM. Further, the “inhibition of A/PR8 nucleoprotein mRNA level” value in data set [6] was “significant dose-dependent inhibitory activity; also recorded: showed inhibitory effects”. Besides, in data set [4], half-maximal inhibition (IC50) required 34.2 ± 17.2 µM and the IC50/CC50 is given as less than 0.14.
`COc1cc2nc(N3CCN(C(=O)c4ccccc4)CC3)nc(N)c2cc1OC` [Compound 16, (4-(4-amino-6,7-dimethoxyquinazolin-2-yl)piperazin-1-yl)(phenyl)methanone]: in the data set on influenza RNA promoter [2], the “binding to the RNA promoter” value is listed as “compound binding to RNA promoter” and binding was characterised by a dissociation constant (Kd) of 321 µM. Besides, in the data set “in vitro”, the CC50 at 24 h is more than 250 µM. In addition, the IC50/CC50 in data set [4] is less than 0.43.
For the compound `COc1cc2nc(N3CCN(C(=O)c4cccs4)CC3)nc(N)c2cc1OC` [Compound 15, (4-(4-amino-6,7-dimethoxyquinazolin-2-yl)piperazin-1-yl)(thiophen-2-yl)methanone], in the data set on influenza RNA promoter [2], the “binding to the RNA promoter” value is reported as “compound binding to RNA promoter” and the affinity, expressed as Kd, was 221 µM. This compound also came in with a CC50 at 24 h in the data set “in vitro” of 67 µM. In data set [4], the IC50/CC50 stood at 0.25.
In the case of `CCCC(=O)N1CCN(c2nc(N)c3cc(OC)c(OC)cc3n2)CC1` [Compound 8, 1-(4-(4-amino-6,7-dimethoxyquinazolin-2-yl)piperazin-1-yl)butan-1-one], in the data set on influenza RNA promoter [2], the “binding to the RNA promoter” value is “compound binding to RNA promoter” and the Kd came out at 44.4 µM. Further, the CC50 at 24 h in “in vitro” is more than 250 µM. Also, in [4], the IC50 came to 44.2 ± 11.3 µM and the IC50/CC50 is less than 0.18.
For `COc1cc2nc(N3CCN(C(=O)CNC(=O)CNC(=O)CN)CC3)nc(N)c2cc1OC` [Compound 3, 2-amino-N-(2-((2-(4-(4-amino-6,7-dimethoxyquinazolin-2-yl)piperazin-1-yl)-2-oxoethyl)amino)-2-oxoethyl)acetamide], in the data set on influenza RNA promoter [2], the “line broadening” value is recorded as “caused line broadening of the imino protons of U27”; the “binding to the RNA promoter” value was “bound to the influenza RNA promoter; also recorded: compound binding to the RNA promoter”; the dissociation constant (Kd) was found to be 132 µM. For the same compound, the CC50 at 24 h in the data set “in vitro” is more than 250 µM.
As for `COc1cc2nc(N3CCN(C(=O)CCCCN)CC3)nc(N)c2cc1OC` [Compound 4, 5-amino-1-(4-(4-amino-6,7-dimethoxyquinazolin-2-yl)piperazin-1-yl)pentan-1-one], in the data set with influenza RNA promoter [2], the “line broadening” value is “caused line broadening of the imino protons of U27” and the “binding to the RNA promoter” value is reported as “bound to the influenza RNA promoter; also recorded: compound binding to the RNA promoter”. This compound showed a CC50 at 24 h in the data set “in vitro” of more than 250 µM.
`COc1cc2nc(N3CCN(C(=O)C(C)OC)CC3)nc(N)c2cc1OC` (centres unmarked) [Compound 11, 1-(4-(4-amino-6,7-dimethoxyquinazolin-2-yl)piperazin-1-yl)-2-methoxypropan-1-one]: in the data set on influenza RNA promoter [2], the “line broadening” value is listed as “caused line broadening of the imino protons of U27” and the “binding to the RNA promoter” value is “bound to the influenza RNA promoter; also recorded: compound binding to RNA promoter”. Besides, in “in vitro”, the CC50 at 24 h is more than 250 µM.
For `COc1cc2nc(N3CCN(C(=O)C(C)C)CC3)nc(N)c2cc1OC` [Compound 7, 1-(4-(4-amino-6,7-dimethoxyquinazolin-2-yl)piperazin-1-yl)-2-methylpropan-1-one], in the data set with influenza RNA promoter [2], the “line broadening” value is “caused line broadening of the imino protons of U27”; the “binding to the RNA promoter” value is on record as “compound binding to RNA promoter”; the Kd was 158 µM. In the data set “in vitro”, this compound gave a CC50 at 24 h of more than 250 µM. Further, in [4], the IC50 was 33.9 ± 23.2 µM and the IC50/CC50 was less than 0.14.
